Data as given in patent publication US20200347153A1, “METHODS FOR FORMING INCLUSION COMPLEXES WITH HYDROPHILIC BETA-CYCLODEXTRIN DERIVATIVES AND COMPOSITIONS THEREOF” (priority 2019, published 2020).

Legend:
[1] = Stability studies (shelf life, visible changes); type: physicochemical
Method: The effects of HPBCD on the shelf life stability of each active agent is studied at pre-determined temperatures for 11 weeks. Real time stability is observed at −17° C., 5° C. and 25° C., and accelerated stability is observed at 40° C. For accelerated stability, one day at 40° C. is equivalent to one week, thus the data represents 77 weeks. […] The vials are then placed in a temperature-controlled oven or refrigerator/freezer. The compounds are checked daily and any visible changes are noted.

[2] = cited from earlier work
[3] = Differential scanning calorimetry (decomposition); type: physicochemical; settings: DSC curve
Method: Calorimetric studies are conducted using a Modulated Differential Scanning calorimetry instrument (MDSC). Accurately weighed samples are sealed in Tzero aluminum pans. Empty sealed Tzero aluminum pans are used as a reference. […] Thermal analysis of pure active, excipients, formulations and physical mixtures are performed. Data analysis is performed using Universal Analysis software to measure melting point enthalpy of melting.
Differential scanning calorimetry (DSC) is a thermoanalytical technique useful in detecting phase transitions in solid samples by measuring the amount of heat absorbed or released during such transitions.
DSC analysis was performed using a TA Trios DSC instrument. Samples tested were HPBCD, the Active, and the active-HPBCD inclusion complexes. Each weighed sample for analysis ranged from 2.00 mg to 4.00 mg.

Phase solubility studies = settings: active with HPBCD; calculated using Eq. (1)
[4] = 5° C., Week 10, visible changes
[5] = 5° C., Week 11, visible changes
[6] = 25° C., Week 1, visible changes
[7] = 25° C., Week 2, visible changes
[8] = 25° C., Week 3, visible changes
[9] = 25° C., Week 4, visible changes
[10] = 25° C., Week 5, visible changes
[11] = 25° C., Week 6, visible changes
[12] = 25° C., Week 7, visible changes
[13] = 25° C., Week 8, visible changes
[14] = 25° C., Week 9, visible changes
[15] = 25° C., Week 10, visible changes
[16] = 25° C., Week 11, visible changes
[17] = 40° C. accelerated stability, Week 1, visible changes
[18] = 40° C. accelerated stability, Week 2, visible changes
[19] = 40° C. accelerated stability, Week 3, visible changes
[20] = 40° C. accelerated stability, Week 4, visible changes
[21] = 40° C. accelerated stability, Week 5, visible changes
[22] = 40° C. accelerated stability, Week 6, visible changes
[23] = 40° C. accelerated stability, Week 7, visible changes
[24] = 40° C. accelerated stability, Week 8, visible changes
[25] = 40° C. accelerated stability, Week 9, visible changes
[26] = 40° C. accelerated stability, Week 10, visible changes
[27] = 40° C. accelerated stability, Week 11, visible changes

Nc1cc(N2CCCCC2)nc(N)[n+]1[O-] [Minoxidil]
Stability of Actives at 5° C. ([1]; 5° C., Week 1, visible changes): 0
Stability of Actives at 5° C. ([1]; 5° C., Week 2, visible changes): 0
Stability of Actives at 5° C. ([1]; 5° C., Week 3, visible changes): 0
Stability of Actives at 5° C. ([1]; 5° C., Week 4, visible changes): 0
Stability of Actives at 5° C. ([1]; 5° C., Week 5, visible changes): 0
Stability of Actives at 5° C. ([1]; 5° C., Week 6, visible changes): 0
Stability of Actives at 5° C. ([1]; 5° C., Week 7, visible changes): 0
Stability of Actives at 5° C. ([1]; 5° C., Week 8, visible changes): 0
Stability of Actives at 5° C. ([1]; 5° C., Week 9, visible changes): 0
Stability of Actives at 5° C. [1, 4]: 0
Stability of Actives at 5° C. [1, 5]: 0
Stability of Actives at 25° C. [1, 6]: 0
Stability of Actives at 25° C. [1, 7]: 0
Stability of Actives at 25° C. [1, 8]: 0
Stability of Actives at 25° C. [1, 9]: 0
Stability of Actives at 25° C. [1, 10]: 0
Stability of Actives at 25° C. [1, 11]: 0
Stability of Actives at 25° C. [1, 12]: 0
Stability of Actives at 25° C. [1, 13]: 0
Stability of Actives at 25° C. [1, 14]: 0
Stability of Actives at 25° C. [1, 15]: 0
Stability of Actives at 25° C. [1, 16]: 0
Stability of Actives at 40° C. [1, 17]: 0
Stability of Actives at 40° C. [1, 18]: 0
Stability of Actives at 40° C. [1, 19]: 0
Stability of Actives at 40° C. [1, 20]: 0
Stability of Actives at 40° C. [1, 21]: 0
Stability of Actives at 40° C. [1, 22]: 0
Stability of Actives at 40° C. [1, 23]: 0
Stability of Actives at 40° C. [1, 24]: 0
Stability of Actives at 40° C. [1, 25]: 0
Stability of Actives at 40° C. [1, 26]: 0
Stability of Actives at 40° C. [1, 27]: 0

CC(O)COC[C@H]1O[C@@H]2O[C@H]3[C@H](O)[C@@H](O)[C@@H](O[C@H]4[C@H](O)[C@@H](O)[C@@H](O[C@H]5[C@H](O)[C@@H](O)[C@@H](O[C@H]6[C@H](O)[C@@H](O)[C@@H](O[C@H]7[C@H](O)[C@@H](O)[C@@H](O[C@H]8[C@H](O)[C@@H](O)[C@@H](O[C@H]1[C@H](O)[C@H]2O)O[C@@H]8COCC(C)O)O[C@@H]7COCC(C)O)O[C@@H]6COCC(C)O)O[C@@H]5COCC(C)O)O[C@@H]4COCC(C)O)O[C@@H]3COCC(C)O (stereo partly drawn) [HPBCD, Hydroxypropyl β-cyclodextrin]
Stability of Actives at 5° C. ([1]; 5° C., Week 1, visible changes): 0
Stability of Actives at 5° C. ([1]; 5° C., Week 2, visible changes): 0
Stability of Actives at 5° C. ([1]; 5° C., Week 3, visible changes): 0
Stability of Actives at 5° C. ([1]; 5° C., Week 4, visible changes): 0
Stability of Actives at 5° C. ([1]; 5° C., Week 5, visible changes): 0
Stability of Actives at 5° C. ([1]; 5° C., Week 6, visible changes): 0
Stability of Actives at 5° C. ([1]; 5° C., Week 7, visible changes): 0
Stability of Actives at 5° C. ([1]; 5° C., Week 8, visible changes): 0
Stability of Actives at 5° C. ([1]; 5° C., Week 9, visible changes): 0
Stability of Actives at 5° C. [1, 4]: 0
Stability of Actives at 5° C. [1, 5]: 0
Stability of Actives at 25° C. [1, 6]: 0
Stability of Actives at 25° C. [1, 7]: 0
Stability of Actives at 25° C. [1, 8]: 0
Stability of Actives at 25° C. [1, 9]: 0
Stability of Actives at 25° C. [1, 10]: 0
Stability of Actives at 25° C. [1, 11]: 0
Stability of Actives at 25° C. [1, 12]: 0
Stability of Actives at 25° C. [1, 13]: 0
Stability of Actives at 25° C. [1, 14]: 0
Stability of Actives at 25° C. [1, 15]: 0
Stability of Actives at 25° C. [1, 16]: 0
Stability of Actives at 40° C. [1, 17]: 0
Stability of Actives at 40° C. [1, 18]: 0
Stability of Actives at 40° C. [1, 19]: 0
Stability of Actives at 40° C. [1, 20]: 0
Stability of Actives at 40° C. [1, 21]: 0
Stability of Actives at 40° C. [1, 22]: 0
Stability of Actives at 40° C. [1, 23]: 0
Stability of Actives at 40° C. [1, 24]: 0
Stability of Actives at 40° C. [1, 25]: 0
Stability of Actives at 40° C. [1, 26]: 0
Stability of Actives at 40° C. [1, 27]: 0
aqueous solubility [2]: more than 60 g/100 mL

CCOC(=O)c1ccc(N)cc1 [Benzocaine]
Stability of Actives at 5° C. ([1]; 5° C., Week 1, visible changes): 0
Stability of Actives at 5° C. ([1]; 5° C., Week 2, visible changes): 0
Stability of Actives at 5° C. ([1]; 5° C., Week 3, visible changes): 0
Stability of Actives at 5° C. ([1]; 5° C., Week 4, visible changes): 0
Stability of Actives at 5° C. ([1]; 5° C., Week 5, visible changes): 0
Stability of Actives at 5° C. ([1]; 5° C., Week 6, visible changes): 0
Stability of Actives at 5° C. ([1]; 5° C., Week 7, visible changes): 0
Stability of Actives at 5° C. ([1]; 5° C., Week 8, visible changes): 0
Stability of Actives at 5° C. ([1]; 5° C., Week 9, visible changes): 0
Stability of Actives at 5° C. [1, 4]: 0
Stability of Actives at 5° C. [1, 5]: 0
Stability of Actives at 25° C. [1, 6]: 0
Stability of Actives at 25° C. [1, 7]: 0
Stability of Actives at 25° C. [1, 8]: 0
Stability of Actives at 25° C. [1, 9]: 0
Stability of Actives at 25° C. [1, 10]: 0
Stability of Actives at 25° C. [1, 11]: 0
Stability of Actives at 25° C. [1, 12]: 0
Stability of Actives at 25° C. [1, 13]: 0
Stability of Actives at 25° C. [1, 14]: 0
Stability of Actives at 25° C. [1, 15]: 0
Stability of Actives at 25° C. [1, 16]: 0
Stability of Actives at 40° C. [1, 17]: 0
Stability of Actives at 40° C. [1, 18]: 0
Stability of Actives at 40° C. [1, 19]: 0
Stability of Actives at 40° C. [1, 20]: 0
Stability of Actives at 40° C. [1, 21]: 0
Stability of Actives at 40° C. [1, 22]: 0
Stability of Actives at 40° C. [1, 23]: 0
Stability of Actives at 40° C. [1, 24]: 0
Stability of Actives at 40° C. [1, 25]: 0
Stability of Actives at 40° C. [1, 26]: 0
Stability of Actives at 40° C. [1, 27]: 0
decomposition (DSC) [3]: 230 °C
association constant (Kc) for complex formation (Phase solubility studies): 1.031 M⁻¹

COc1cc(CCC(=O)CC(=O)CCc2ccc(O)c(OC)c2)ccc1O [Tetrahydrocurcumin]
Stability of Actives at 5° C. ([1]; 1 week): 0
Stability of Actives at 25° C. ([1]; 1 week): 0
Stability of Actives at 40° C. ([1]; 1 week): 0
Stability of Actives at −17 C. ([1]; 1 week): 0
Stability of Actives at 5° C. ([1]; 2 week): 0
Stability of Actives at 25° C. ([1]; 2 week): 0
Stability of Actives at 40° C. ([1]; 2 week): 0
Stability of Actives at −17 C. ([1]; 2 weeks): 0
Stability of Actives at 5° C. ([1]; 3 week): 0
Stability of Actives at 25° C. ([1]; 3 week): 0
Stability of Actives at 40° C. ([1]; 3 week): 0
Stability of Actives at −17 C. ([1]; 3 weeks): 0
Stability of Actives at 5° C. ([1]; 4 week): 0
Stability of Actives at 25° C. ([1]; 4 week): 0
Stability of Actives at 40° C. ([1]; 4 week): 0
Stability of Actives at −17 C. ([1]; 4 weeks): 0
Stability of Actives at 5° C. ([1]; 5 week): 0
Stability of Actives at 25° C. ([1]; 5 week): 0
Stability of Actives at 40° C. ([1]; 5 week): 0
Stability of Actives at −17 C. ([1]; 5 week): 0
Stability of Actives at 5° C. ([1]; 6 week): 0
Stability of Actives at 25° C. ([1]; 6 week): 0
Stability of Actives at 40° C. ([1]; 6 week): 0
Stability of Actives at −17 C. ([1]; 6 week): 0
Stability of Actives at 5° C. ([1]; 7 week): 0
Stability of Actives at 25° C. ([1]; 7 week): 0
Stability of Actives at 40° C. ([1]; 7 week): 0
Stability of Actives at −17 C. ([1]; 7 week): 0
Stability of Actives at 5° C. ([1]; 8 week): 0
Stability of Actives at 25° C. ([1]; 8 week): 0
Stability of Actives at 40° C. ([1]; 8 week): 0
Stability of Actives at −17 C. ([1]; 8 week): 0
Stability of Actives at 5° C. ([1]; 9 week): 0
Stability of Actives at 25° C. ([1]; 9 week): 0
Stability of Actives at 40° C. ([1]; 9 week): 0
Stability of Actives at −17 C. ([1]; 9 week): 0
Stability of Actives at 5° C. ([1]; 10 week): 0
Stability of Actives at 25° C. ([1]; 10 week): 0
Stability of Actives at 40° C. ([1]; 10 week): 0
Stability of Actives at −17 C. ([1]; 10 weeks): 0
Stability of Actives at 5° C. ([1]; 11 week): 0
Stability of Actives at 25° C. ([1]; 11 week): 0
Stability of Actives at 40° C. ([1]; 11 week): 0
Stability of Actives at −17 C. ([1]; 11 weeks): 0
